Values of other authors in patent US20090226465A1, “MACROCYCLIC DEPSIPEPTIDE ANTIBODY-DRUG CONJUGATES AND METHODS” (priority 2005, published 2009).
*1 amine or outer side, *2 acyl side, *3 side chain or, on linkers, in order; H or OH if unused. Where a SMILES comes first, the peptide text is derived from it. Bridges are numbered along the chain shown (N, C = ends). [ ]: non-standard residue; d: D form. The star is where a group is joined. X1 = CC[C@H](C)[C@@H](N[*:1])[C@@H](O)CC(=O)O[C@H](C(=O)[C@H](C)C(=O)[*:2])C(C)C; NMeY = CN[C@@H](Cc1ccc(O)cc1)C(=O)O; dNMeL = CN[C@H](CC(C)C)C(=O)O; Pyruvoyl = CC(=O)C(=O)*

Experiments:
[1] = test system: panel of solid tumor cell lines; conditions: read-out: in vitro IC50

In the case of `CC[C@H](C)[C@H]1NC(=O)[C@@H](NC(=O)[C@@H](CC(C)C)N(C)C(=O)[C@@H]2CCCN2C(=O)C(C)=O)[C@@H](C)OC(=O)[C@H](Cc2ccc(OC)cc2)N(C)C(=O)[C@@H]2CCCN2C(=O)[C@H](CC(C)C)NC(=O)[C@@H](C)C(=O)[C@H](C(C)C)OC(=O)C[C@@H]1O` [Aplidin] (Pyruvoyl-P[dNMeL]T[X1]LP[NMeY](Me); ester 3-C), the IC50 [1] is given as 1 to 100 nM and the “half life in plasma” value is given as 4 to 7 h.
